# Assay results: patent publication US20040219201A1, “Tempamine compositions and methods of use” (priority 2001, published 2004)
# Columns and labels:
# [1] = type: in vivo; details: free tempamine 1.8 mg/kg, four hours after injection, healthy and arthritic rats
# Method: Studies using the AA model are described in Example 6. In this study, AA was induced in male rats by injection of microbacteria in Freund's ajuvavnt. Liposomes containing tempanine were prepared as described in Example 5A by remote loading tempamine against an ammonium sulfate gradient. The liposomes were administered by injection to healthy and arthritic rats 22 days after inducement of AA. At regular time intervals after administration of the liposomes, plasma and tissue samples were taken to determine the biodistribution and pharmacokinetics.
# Adjuvent arthritis (AA) was induced by a single intradermal injection of mycobacteria in mineral oil (Freund's adjuvant). In strains of rats susceptible to adjuvant arthritis, the non-specific primary inflamnmation at the injection site was followed on about the 10th post-injection day by a disseminated polyarthritis or secondary specific inflammation. Lewis strain rats, which are highly susceptible to AA, were injected with 1 mg of Mycobacterium tuberculosis H37Ra (Difco, Detroit, Mich., USA) in Freund's complete adjuvant (FCA) (Difco), subcutaneously at the base of the tail. Maximum swelling of the paw occurred between 20 and 27 days
# Adjuvent (maximum swelling). Tempamine was administered at a dose of 1.8 mg tempamine/kg (10.5 μmol/kg). The phospholipid concentration of the injected liposomes was 42 mg/kg (56 μmol/kg). […]
# [2] = tested on: MCF-7 (human breast adenocarcinoma); test: Cytotoxicity assay (methylene blue); nitroxides alone or doxorubicin plus tempamine; type: cell-based
# Method: As described in Example 1, the cytotoxicity of tempamine was determined on three cell lines, MCF-7 (human breast adenocarcinoma), M-109S (doxorubicin-sensitive human breast carcinoma), and M-109R (doxorubicin-resistant human breast carcinoma). The effect of free tempamine on cell proliferation was determined by a methylene blue assay as described in Example 1B.
# FIG. 4 is a plot comparing the percent survival of MCF-7 human breast carcinoma cells at various doses of tempamine (closed circles) and tempol (open circles) in vitro. The cells were analyzed after 72 hours of exposure to the nitroxides. Tempamine and tempol cell growth inhibitory activities were of similar magnitude.
# In yet another aspect, the invention contemplates administration of tempamine in combination with chemotherapeutic agent. […] Doxorubicin was chosen as a model chemotherpeutic agent. The enhancement of doxorubicin cytotoxicity by tempamine was tested on three cell lines, as described in Example 1A. A cytotoxicity assay as described in Example 1B was used. Two of the cell lines, MCF-7 and M-109S, were doxorubicin-sensitive lines and one cell line, M-109R, was doxorubicin resistant. MCF-7 cells are more sensitive to tempamine (100 μM caused 75% growth inhibition), but are less sensitive to doxorubicin, than are M-109S cells.
# MCF-7 (human breast adenocarcinoma), M-109S (doxorubicin-sensitive human breast carcinoma), and M-109R (doxorubicin-resistant human breast carcinoma) were maintained in RPMI medium (Biological Industries, Beit HaEmek, Israel) supplemented with 10% fetal calf serum (FCS). The cell lines were maintained under standard culture conditions at 37° C. in a humidified 5% CO2 atmosphere.
# The effect of tempamine on cell proliferation was determined by the methylene blue assay (Horowitz, A. T., et al., Biochim BiophysActa. 1109:203, (1992)). Briefly, cells were seeded onto 96-well plates (MCF cells at a density of 6×10^3 cells per well, and M-109S and M-109R at a density of 1.5×10^3 cells per well) and allowed to grow for 24 hours prior to treatment with different concentrations of tempamine. After the addition of tempamine (5×10^−5 to 4×10^−4), the cells were incubated in RPMI +10% FCS for four days without change of medium. Then the cells were fixed with 2.5% glutaraldehyde, stained with methylene blue and assayed spectrophotometrically.
# [3] = n-octanol/water partition coefficient (Kp); type: physicochemical
# Method: Free tempamine gives well-defined peaks in both solutions of n-octanol and water. The peak area (or height) is proportional to the tempamine concentrations in the aqueous phase and in n-octanol. The tempaamine concentration in both solvents was determined from a calibration curve of temparnine in each of the two solvents n-octanol and water.
# A. Partition Coefficients The n-octanol/water partition coefficient, Kp, of tempamine was measured to estimate its phase distribution in the liposomes, according to the procedure previously described (Samuni, A. et al., Free-Radic Biol Med., 22:1165 (1997)). Partition coefficients were measured at various pH levels (pH 4.0, 7.0, and 10.6), at tempamine concentrations of 2.0 mM and 20.0 mM and at different concentrations of ammonium sulfate (20-400 mM). The volume of each phase was 1 ml.
# [4] = ammonium sulfate 20 mM, TMN 2 μmole
# [5] = ammonium sulfate 20 mM, TMN 20 μmole
# [6] = ammonium sulfate 150 mM, TMN 2 μmole
# [7] = ammonium sulfate 150 mM, TMN 20 μmole
# [8] = ammonium sulfate 400 mM, TMN 2 μmole
# [9] = ammonium sulfate 400 mM, TMN 20 μmole
structure (smiles),measurement,setting,value
"CC1(C)CC(N)CC(C)(C)N1[O] [tempamine, 2,2,6,6-tetramethylpiperidine-4-amino-1-oxyl]",amount of tempamine in plasma and in the tested tissues (detection limit),[1],< 0.5 µM
same,IC50,"[2]; Homo sapiens, MCF7, 72 h, read-out: IC50 (cell growth inhibition)",210 µM
same,growth inhibition,"[2]; MCF-7, 100 μM tempamine",75%
same,"n-octanol/aqueous phase (Kp), pH 7","[3]; ammonium sulfate 0 mM, TMN 20 μmole",0.278
same,"n-octanol/aqueous phase (Kp), pH 4",[3]; [4],0.031
same,"n-octanol/aqueous phase (Kp), pH 7",[3]; [4],0.048
same,"n-octanol/aqueous phase (Kp), pH 10.6",[3]; [4],2.418
same,"n-octanol/aqueous phase (Kp), pH 4",[3]; [5],0.074
same,"n-octanol/aqueous phase (Kp), pH 7",[3]; [5],0.116
same,"n-octanol/aqueous phase (Kp), pH 10.6",[3]; [5],2.386
same,"n-octanol/aqueous phase (Kp), pH 4",[3]; [6],0.024
same,"n-octanol/aqueous phase (Kp), pH 7",[3]; [6],0.055
same,"n-octanol/aqueous phase (Kp), pH 10.6",[3]; [6],2.184
same,"n-octanol/aqueous phase (Kp), pH 4",[3]; [7],0.049
same,"n-octanol/aqueous phase (Kp), pH 7",[3]; [7],0.038
same,"n-octanol/aqueous phase (Kp), pH 10.6",[3]; [7],3.969
same,"n-octanol/aqueous phase (Kp), pH 4",[3]; [8],0.028
same,"n-octanol/aqueous phase (Kp), pH 7",[3]; [8],0.040
same,"n-octanol/aqueous phase (Kp), pH 10.6",[3]; [8],3.005
same,"n-octanol/aqueous phase (Kp), pH 4",[3]; [9],0.046
same,"n-octanol/aqueous phase (Kp), pH 7",[3]; [9],0.034
same,"n-octanol/aqueous phase (Kp), pH 10.6",[3]; [9],4.569
